System: wild-type ribosomes
Assay: Antibiotic inhibition of orthogonal sf-gfp translation by wild-type ribosomes in cell-free system
Format: biochemical, E. coli
Settings: pactamycin 100 μM
Protocol: Ribosomes (wild-type) or oRibo-T (mixed with wild-type ribosomes) were prepared from SQ171fg cells transformed with pAM552 or poRibo-T1, respectively. An orthogonal sf-gfp gene was PCR amplified from the plasmid pT7oGFP using primers […] (SEQ ID NO: 227) and […] (SEQ ID NO: 228). The transcription-translation reaction was carried out in Δ(ribosome, amino acid, tRNA) PURExpress system as described above. The 7.5 μl reactions were supplemented with 18.75 ng DNA template and 7.5 pmol ribosomes and when needed, clindamycin or pactamycin were added to the reactions to the final concentrations of 50 μM or 100 μM respectively.

CC(=O)c1cccc(N[C@H]2[C@H](N)[C@@](NC(=O)N(C)C)([C@H](C)O)[C@@](C)(O)[C@@]2(O)COC(=O)c2c(C)cccc2O)c1 [Pactamycin]
inhibition of the activity of wild-type ribosomes in the PURE translation system: completely inhibited
